Experimental data taken from US9403806B1, “Cognition enhancing compounds and compositions, methods of making, and methods of treating” (NeuroSolis, Inc., priority 2010, dated 2016).

What was measured:
PAMPA test, Example 34 = details: PAMPA
[1] = Serum pharmacokinetics of immediate release capsules in healthy volunteers; format: in vivo, human; details: 5 mg dose cohort, 6 subjects
Procedure: The hydrochloride salt of MCD-386 (“MCD-386 HCl”) was formulated with the following excipients and loaded into #3 hard gelatin capsules (5 mg dose) or #2 hard gelatin capsules (0.2 mg dose).
A single 5 mg capsule or 5×0.2 mg capsules (1 mg total dose) were administered orally to healthy male volunteer human subjects with 125 ml of water. Six such subjects receiving the 5 mg dose, and a different 6 subjects received the 1 mg dose.
Venous blood samples were drawn at various intervals after dosing from each subject into standard tubes for bioanalytical and pharmacokinetic analysis. The blood was allowed to clot, and the serum separated, using common clinical laboratory techniques. Serum samples were stored at −20 deg C. until used for analysis.
MCD-386 HCl, which exists in serum principally as the protonated form of MCD-386, was assayed in clinical serum samples as follows. […] The MS/MS transitions monitored were 181.1 m/z to 111.0 m/z for MCD-386 HCl and 186.1 m/z to 111.1 m/z for the internal standard, D5-MCD-386 HCl. […] The lower limit of quantitation (LLOQ) was 0.100 ng MCD-386 HCl per mL of serum. MCD-386 HCl concentrations are expressed as free base. […]
The bioanalytical results were analyzed using Win Nonlin software and common pharmacokinetic methods known to those skilled in the art.

[2] = Blood and brain concentrations (rats), oral gavage; format: in vivo, Long-Evans Hooded rats; details: rat, 10 mg/kg po, 1 hr, relative to MCD-386 = 1.00
Procedure: Long-Evans Hooded rats (Charles River: male, 250-350 g) were dosed with solutions of test compounds in PBS by oral gavage. At the desired time after dosing, the animals were anesthetized with isoflurane, and then euthanized by cervical dislocation. Blood was obtained by cardiac puncture, transferred to a 1.5 mL microcentrifuge tube containing 15U Heparin, and the plasma recovered after centrifugation. Brains were dissected, weighed, immediately chilled to 4° C., and homogenized using a PowerGen 125 homogenizer in five volumes of ice-cold 2% formic acid. Proteins were precipitated from plasma and brain homogenate with two and five volumes respectively of ice-cold 2% formic acid and clarified by centrifugation. The supernatant was ultra-filtered by centrifugation through a 3K MWCO spin column (Pall Life Sciences), following the manufacturer's instructions. The concentration of compound in the ultra-filtrate was subjected to reverse-phase liquid chromatography using a 150×2.1 mm Agilent C8 reverse-phase column on a Shimadzu Prominence LC, eluting the compounds with a gradient of 2% to 50% of acetonitrile+0.1% formic acid for compound MI-50,382, or an isocratic flow of 2% acetonitrile+0.1% formic acid for the rest of the compounds listed. The concentration of the compound in the column effluent was measured using an Applied Biosystems API-3200 triple quadrupole mass spectrometer equipped with an electrospray sample injection system. The counts of the characteristic parent and product ions of each test compound were converted to concentration units by comparison with a standard calibration curve.

Papp (PAMPA test, Example 34): 0.05 ×10⁻⁶ cm/s
Brain Cmax (10 mg/kg po) 1 hr MCD-386 = 1.00 [2]: 1.00
Compound: CCc1noc(C2CN=CNC2)n1 (stereo not drawn) [MCD-386, 3-ethyl-5-(1,4,5,6-tetrahydropyrimidin-5-yl)-1,2,4-oxadiazole]
main metabolite in serum samples [1]: identified in the serum samples of five out of six subjects
